# Measured values from PMC6099623, “Novel Thiazolidinone/Thiazolo[3,2-a]Benzimidazolone-Isatin Conjugates as Apoptotic Anti-proliferative Agents Towards Breast Cancer: One-Pot Synthesis and In Vitro Biological Evaluation” (Molecules : A Journal of Synthetic Chemistry and Natural …, 2018).
# Like-named read-outs stand apart in the source and are kept apart here.
# Experiments:
# [1] = test system: MDA-MB-231 breast cancer cell line; test: Crystal Violet antiproliferative assay, MDA-MB-231; format: cell-based; settings: Homo sapiens, MDA-MB-231, 48 h, 48 h of incubation, mean ± S.D. of three separate experiments
# Protocol: (§1) The in vitro antiproliferative activity of the newly synthesized conjugates 4a–n and 7a–d was evaluated against breast cancer MDA-MB-231 and MCF-7 cell lines, following the Crystal Violet (CV) cell cytotoxicity assay. Doxorubicin was included in this assay as a positive control, and Sunitinib was used as a reference drug.
# (§2) Breast cancer cell lines MDA-MB-231 and MCF-7 cells were obtained from VACSERA Tissue Culture Unit. The cells were propagated in DMEM supplemented with 10% heat-inactivated fetal bovine serum, 1% L-glutamine (2.5 mM), HEPES (4-(2-hydroxyethyl)-1-piperazineethanesulfonic acid) buffer (10 mM) and 50 µg/mL gentamycin. All cells were maintained at 37 °C in a humidified atmosphere with 5% CO2 and were sub-cultured two times a week. Cytotoxicity was determined following the Crystal Violet (CV) cell cytotoxicity assay.
# (§3) Test samples were dissolved in DMSO and kept at a stock concentration of 100 mM. Exponentially growing cells were collected using 0.25% Trypsin-EDTA and seeding was done at a density of 3000 cells/well in 96-well plates. After 24 h, the monolayer cultured cells were washed with sterile phosphate buffered saline (0.01 M pH 7.2) and simultaneously the cells were treated with […] from 10 different dilutions of the test compounds as well as Doxorubicin was […] Control wells were exposed to the same concentration of vehicle, DMSO (1%) used in the highest concentration of the test samples. Cell viability was >99% compared to untreated cells. The number of the surviving cells was determined by staining the cells with crystal violet followed by cell lysing using 33% glacial acetic acid. The absorbance was measured at 490 nm using ELISA reader (Thermo Fisher Scientific, Waltham, MA, USA) after gentle shaking. The absorbance values from untreated cells were considered as 100% proliferation.
# (§4) The number of viable cells was determined using ELISA reader as previously mentioned and the percentage of viability was calculated as […] where ODt is the mean optical density of wells treated with the test sample and ODc is the mean optical density of untreated cells. The 50% inhibitory concentration (IC50) was estimated from graphic plots of the dose response curve for each conc. using GraphPad Prism software, Version 5 (San Diego, CA, USA). The data presented are the mean of at least three separate experiments.
# [2] = test system: MCF-7 breast cancer cell line; test: Crystal Violet antiproliferative assay, MCF-7; format: cell-based; settings: for IC50: Homo sapiens, MCF7, 48 h, Crystal Violet assay, 48 h of incubation, mean ± S.D. of three separate experiments
# Protocol: as §1, §2, §3, §4
# [3] = test system: lung fibroblast cell line (WI-38); test: Crystal violet cytotoxicity towards nontumorigenic WI-38; format: cell-based; settings: Homo sapiens, nontumorigenic cells, mean ± S.D. of three separate experiments
# Protocol: (§5) The cytotoxic activity of the active conjugates towards MDA-MB-231 cells (4c–e, 4g, 4l–n and 7a–d) was examined against nontumorigenic human lung fibroblast cell line (WI-38) and human breast epithelial cell line (MCF-10A) to investigate the potential safety of the newly prepared conjugates towards the normal cells. […] The results were expressed as IC50 values, and selectivity index was calculated (Table 2).
# (§6) The cytotoxic activity of the active conjugates towards nontumorigenic human lung fibroblast cell line (WI-38) and human breast epithelial cell line (MCF-10A) was determined using Crystal violet (CV) cell cytotoxicity assay according to the previously published procedures.
# [4] = test system: breast epithelial cell line (MCF-10A); test: Crystal violet cytotoxicity towards nontumorigenic MCF-10A; format: cell-based, human; settings: for IC50: Homo sapiens, MCF-10A, nontumorigenic cells, mean ± S.D. of three separate experiments; for Selectivity Index (MCF-10A/MDA-MB-231): ratio of IC50 MCF-10A to IC50 MDA-MB-231
# Protocol: as §5, §6
# Bax = test: ELISA immunoassay of Bax level in MDA-MB-231 cells; format: cell-based; settings: MDA-MB-231 cells treated at IC50 concentration; for Bax / Bax, number of folds of control: 48 h; for Bax/Bcl-2: control 3.9
# Protocol: (§7) In our study, we investigated the effect of conjugates 4m and 7b towards the level of the antiapoptotic Bcl2 and the level of the pro-apoptotic Bax, (Table 3, Figure 2).
# (§8) The levels of the apoptotic markers (Bax, caspase-3) as well as the antiapoptotic marker Bcl-2 were determined using ELISA colorimetric kits per the manufacturer’s instructions, as reported earlier. MDA-MB-231 cells were cultured as a monolayer in T-25 flasks and were seeded to attain 30% confluency prior to treatment. […] At the end of treatment, cells were collected via trypsinization and centrifuged at 10,000 rpm. The pellet was then rinsed with PBS and lysed in RIPA lysis buffer at 4 °C for 45 min, then centrifuged at 14,000 rpm for 20 min to remove the cellular debris. Lysates were then collected and stored at −80 °C for later protein determination using Pierce BCA Protein Assay Kit (Pierce Biotechnology, Rockford, IL, USA) according to manufacturer’s recommendations.
# (§9) The cell lysate was diluted 10 times, and 100 μL ([…]) was added to the wells of […] that were pre-coated with primary antibodies specific to Bax, Bcl-2 and caspase-3 proteins, respectively. A secondary biotin-linked antibody specific to the protein captured by the primary antibody was further added to bind the captured protein, forming a “sandwich” of specific antibodies around the desired protein in the cell lysate. The streptavidin-HRP complex was then used to bind the biotin-linked secondary antibody through its streptavidin portion. The HRP domain reacted with the added TMB substrate to form a colored product that measured at 450 nm by a plate reader (ChroMate-4300, Orlando, FL, USA) after the reaction was terminated via the addition of stop solution.
# Bcl-2 = test: ELISA immunoassay of Bcl-2 level in MDA-MB-231 cells; format: cell-based; settings: MDA-MB-231 cells treated at IC50 concentration; for Bcl-2 / Bcl-2, number of folds of control: 48 h
# Protocol: as §7, §8, §9
# caspase-3 = test: ELISA immunoassay of active caspase-3 level in MDA-MB-231 cells; format: cell-based; settings: MDA-MB-231 cells treated at IC50 concentration, 48 h
# Excerpt: The down-regulation of the antiapoptotic Bcl-2 leads to an increase in the levels of free pro-apoptotic Bax which in turn accumulates at the inner mitochondrial membrane forming channels, altering membrane permeability. Accordingly, the apoptotic factors can leak into the cytoplasm resulting in the caspases cascade activation. As a key executioner protease, caspase-3 is activated by upstream initiator caspases as caspase-9 [48]. Thence, the elevated Bax/Bcl-2 ratios obtained herein triggered the examination of the protein expression levels of active caspases-3. Treatment of TNBC MDA-MB-231 cells with conjugates 4m and 7b led to a significant increase in the active caspase-3 levels by 6.4 and 4.9 folds, respectively, compared to control (Table 3, Figure 3).
# as §8, §9
# MDA-MB-231 cells [5] = test: Cell cycle analysis by DNA flow cytometry; format: cell-based; settings: 24 h at IC50 concentration
# Protocol: The effect of hybrid 4m on cell cycle progression was evaluated in TNBC MDA-MB-231 cells after 24 h of treatment (Figure 4). Such impact was illustrated by DNA flow cytometric assay where MDA-MB-231 cells were treated with conjugate 4m at its IC50 concentration.
# Subsequently, the treated cells were collected by centrifugation, fixed in ice-cold 70% (v/v) ethanol, washed with PBS, re-suspended with 100 μg/mL RNase, stained with 40 μg/mL PI, and analyzed by flow cytometry using FACS Calibur (Becton Dickinson, BD, Franklin Lakes, NJ, USA). The cell cycle distributions were calculated using CellQuest software 5.1 (Becton Dickinson).
# MDA-MB-231 cells [6] = test: Annexin V-FITC/PI apoptosis assay; format: cell-based; settings: MDA-MB-231 at IC50 concentration
# Protocol: Annexin V-based flow cytometry assay elucidates either that cell death is achieved via programmed apoptosis or nonspecific necrosis.
# Phosphatidylserine externalization was assayed using Annexin V-FITC/PI apoptosis detection kit (BD Biosciences, San Jose, CA, USA) according to the manufacturer’s instructions, as reported earlier. MDA-MB-231 cells were cultured to a monolayer then treated with conjugate 4m at its IC50 concentration as described earlier. Cells were then harvested via trypsinization, and rinsed twice in PBS followed by binding buffer. Moreover, cells were re-suspended in 100 μL of binding buffer with the addition of 1 μL of FITC-Annexin V (Becton Dickinson BD Pharmingen^TM, Heidelberg, Germany) followed by an incubation period of 30 min at 4 °C. Cells were then rinsed in binding buffer and resuspended in 150 μL of binding buffer with the addition of 1 μL of DAPI (1 μg/μL in PBS) (Invitrogen, Life Technologies, Darmstadt, Germany). Cells were then analyzed using the flow cytometer BD FACS Canto II (BD Biosciences, San Jose, CA, USA) and the results were interpreted with FlowJo7.6.4 software (Tree Star, Ashland, OR, USA).
# [7] = test system: MCF-7 breast cancer cell line; set-up: method as in PMID 28802125; settings: earlier work of the authors; cited from earlier work
SMILES,IC50 [1] [µM],IC50 [2] [µM],IC50 [3] [µM],IC50 [4] [µM],Selectivity Index (MCF-10A/MDA-MB-231) [4],Boost of Bax/Bcl-2 ratio compared to control (Bax) [folds],Bax (Bax),"Bax, number of folds of control (Bax)",Bax/Bcl-2 (Bax),Downregulation of Bcl-2 expression level compared to control (Bcl-2) [%],Bcl-2 (Bcl-2),"Bcl-2, number of folds of control (Bcl-2)",Caspase-3 (caspase-3),"Caspase-3, number of folds of control (caspase-3)",also measured
"COc1ccc2c(c1)C(=c1sc3nc4ccccc4n3c1=O)C(=O)N2 [Compound 7b, 2-(5-Methoxy-2-oxoindolin-3-ylidene)benzo[4,5]imidazo[2,1-b]thiazol-3(2H)-one]",13.2 ± 1.7,21.7 ± 1.5,121 ± 6.9,184 ± 8,13.9,16,180.0 ± 7.3 pg/mg of Total Protein,7.3 folds of control,64.1,55.1,2.8 ± 0.1 ng/mg of Total Protein,0.45 folds of control,0.15 ± 0.01 ng/mg of Total Protein,4.9 folds of control,melting point: > 300 °C
"Cc1ccc(N=C2SC(=C3C(=O)Nc4ccc(C)cc43)C(=O)N2c2ccc(C)cc2)cc1 [Compound 4m, 5-(5-Methyl-2-oxoindolin-3-ylidene)-3-(p-tolyl)-2-(p-tolylimino)thiazolidin-4-one]",7.6 ± 0.5,8.4 ± 0.5,49.1 ± 1.9,73.1 ± 2.7,9.6,33,274.8 ± 13.5 pg/mg of Total Protein,11.1 folds of control,130.5,66.6,2.1 ± 0.1 ng/mg of Total Protein,0.33 folds of control,0.19 ± 0.01 ng/mg of Total Protein,6.4 folds of control,"Decreased activity against MCF-7 relative to doxorubicin ([2]; IC50 ratio to doxorubicin): 2.2 fold; Arrest in G2-M phase compared to control (MDA-MB-231 cells [5]): 2.5 folds; Rise in percentage of cells at Sub-G1 compared to control (MDA-MB-231 cells [5]): 4 folds; Increase of annexin V-FITC-positive apoptotic cells compared with control (MDA-MB-231 cells [6]): about 6 folds; Percent of annexin V-FITC-positive apoptotic cells, early and late (UR + LR) (MDA-MB-231 cells [6]; control 1.92%): 11.43%"
NS(=O)(=O)c1ccc(/N=C2\NC(=O)/C(=C3/C(=O)Nc4ccc(Cl)cc43)S2)cc1 [compound VI],,,,,,,,,,,,,,,IC50 [7]: 3.96 ± 0.21 µM
